The nature of data set [1]: Displacement of [3H]flunitrazepam from CBR receptor in rat brain cortex membrane incubated for 20 mins by liquid scintillation spectrometer method. Type of data set: cell membranes, Cerebral cortex.
A short description of data set [2]: Binding affinity to CBR (unknown origin). Further details: species or system Homo sapiens.
The target in data set [3] is T1, Translocator protein (Rattus norvegicus, UniProt P16257). Nature of the data set: Displacement of [3H]PK11195 from TSPO receptor in rat brain cortex membrane incubated for 120 mins by liquid scintillation spectrometer method. Type of data set: cell membranes, Cerebral cortex. (In general: Loss of bound radioactivity is the signal in a displacement assay; it reports binding, not function.)

In data set [4] the target is T2, Translocator protein (Homo sapiens, UniProt P30536). The data set is described as follows: Binding affinity to human TSPO.
Data set [5] is described as follows: Metabolic stability in rat brain assessed as parent compound remaining after 30 mins by radio-HPLC analysis. Type of data set: ADME, tissue-based. Particulars: read-out: Stability.
Data set [6] addresses T1, Translocator protein. The data set is described as follows: Displacement of [3H]PK11195 from TSPO receptor in rat brain cortex mitochondrial membrane incubated for 60 mins by liquid scintillation spectrometer method. Type of data set: cell membranes.
Data set [7] in a line: Lipophilicity, log P of the compound at pH 7.4. Particulars: buffer. Type of data set: physicochemical.
The target of data set [8] is T1, Translocator protein. Nature of the data set: Displacement of [3H]PK11195 from TSPO receptor in rat brain cortex mitochondrial membrane by liquid scintillation spectrometer method. Type of data set: cell membranes.
In data set [9] the target is T2, Translocator protein. Nature of the data set: Binding affinity to TSPO receptor (unknown origin).

T2 sequence (P30536 whole entry): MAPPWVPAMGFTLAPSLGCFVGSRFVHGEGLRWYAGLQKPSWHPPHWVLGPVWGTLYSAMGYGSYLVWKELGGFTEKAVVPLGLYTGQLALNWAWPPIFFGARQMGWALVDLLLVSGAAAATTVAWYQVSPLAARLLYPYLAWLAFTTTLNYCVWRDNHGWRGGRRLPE
T1 sequence (P16257 whole entry, looked up): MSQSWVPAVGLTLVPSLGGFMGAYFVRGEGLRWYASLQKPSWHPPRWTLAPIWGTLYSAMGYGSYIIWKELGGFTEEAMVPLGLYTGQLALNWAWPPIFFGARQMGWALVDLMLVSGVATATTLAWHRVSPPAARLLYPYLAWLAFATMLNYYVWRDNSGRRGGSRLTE

For the compound `CCCCCCN(CCCCCC)C(=O)/C=C1\c2nc3ccccc3cc2C(=O)N1c1ccc(Cl)cc1`, the half-inhibitory concentration (IC50) (commonly the concentration needed to halve the response being measured) in [1] (read-out: IC50) was > 1000 nM.

Turning to `CCCN(CCC)C(=O)Cc1c(-c2ccc(Cl)cc2)[nH]c2ccc(Cl)cc12`, the IC50 in data set [1] (read-out: IC50) was > 1000 nM.

With `CCCN(CCC)C(=O)Cc1c(-c2ccc(Cl)cc2)nc2ccc(Cl)cn12` [ALPIDEM], the Ki – broadly, the equilibrium dissociation constant of an inhibitor or competing ligand from its target – in data set [2] was determined as 1 nM. Further, the 50% inhibitory concentration (IC50) in data set [1] (read-out: IC50) turned out to be 1 nM; at Translocator protein [3], 0.5 nM.

`CCC(C)N(C)C(=O)c1cc2ccccc2c(-c2ccccc2[123I])n1` (stereo not given): binding on Translocator protein [4] was characterised by a dissociation constant (Kd) of 10 nM.

Consider `CCCN(CCC)C(=O)CC1c2ncccc2C(=O)N1c1ccc(Cl)cc1` (stereo not given), for which the IC50 in [1] (read-out: IC50) amounted to 860 nM.

On to `CCN(CC)C(=O)Cc1c(-c2ccc(OCCF)cc2)nn2c(C)cc(C)nc12` [DPA-714], for which, in data set [5], the remaining at 0.5 h is < 3%.

In the case of `CCCN(CCC)C(=O)CC1c2nc3ccccc3cc2C(=O)N1c1ccccc1` (stereo not given), the IC50 (in [1] (read-out: IC50); at Translocator protein [3]) was > 1000 nM each time.

On to `CCCCCCN(CCCCCC)C(=O)/C=C1\c2ncccc2C(=O)N1c1ccc(Cl)cc1`, for which, in data set [1] (read-out: IC50), the concentration for half-maximal inhibition (IC50) was > 1000 nM.

With `CCCCCCN(CCCCCC)C(=O)CC1c2ncccc2C(=O)N1c1ccc(Cl)cc1` (stereo not given), the IC50 in [1] (read-out: IC50) was > 1000 nM.

With `CCN(CC)C(=O)Cc1c(-c2ccc([123I])cc2)nc2ccc(Cl)cn12`, at Translocator protein [6], the Kd – broadly, a measure of binding affinity in units of concentration – came out at 3.84 nM.

In the case of `CC(=O)N(Cc1ccccc1OCC[18F])c1cnccc1Oc1ccccc1`, in [7], the logD (as a rule, the decadic logarithm of the distribution of all forms, ionised or not, between an organic phase and buffer at a given pH) was determined as 2.99. In addition, at Translocator protein [8], the Ki came out at 0.07 nM.

Turning to `CCCN(CCC)C(=O)/C=C1\c2ncccc2C(=O)N1c1ccc(Cl)cc1`, the concentration for half-maximal inhibition (IC50) in data set [1] (read-out: IC50) was > 1000 nM.

On to `CCCCCCN(CCCCCC)C(=O)CC1c2nc3ccccc3cc2C(=O)N1c1ccc(Cl)cc1` (stereo not given), for which the IC50 in data set [1] (read-out: IC50) is > 1000 nM.

Consider `O=C1c2cccnc2CN1c1ccc(Cl)cc1`, for which the IC50 in [1] (read-out: IC50) was > 1000 nM.

`CCN(CC)C(=O)[C@H]1CCCc2c1c1c(OC)cccc1n2CC[18F]` displayed an inhibition constant Ki on Translocator protein [9] of 2.4 nM.

The compound `CN1C(=O)CN=C(c2ccccc2)c2cc(Cl)ccc21` [DIAZEPAM] yielded an IC50 in data set [1] of 5.6 nM.

On Translocator protein [3], `CN(Cc1ccccc1)C(=O)c1nc2ccccc2c2c1CCOc1ccccc1-2` returned a half-maximal inhibitory concentration (IC50) of 10 nM.

In the case of `CCCCN1Cc2c(nc3ccccc3c2-c2ccccc2)C1=O`, the 50% inhibitory concentration (IC50) at Translocator protein [3] is > 10000 nM.

As to `CN1C(=O)CN=C(c2ccc(Cl)cc2)c2cc(Cl)ccc21` [RO-54864], the dissociation constant (Kd) at Translocator protein [9] was found to be 1.1 nM.

For the compound `CCCN(CCC)C(=O)/C=C1\c2nc3ccccc3cc2C(=O)N1c1ccc(Cl)cc1`, in [1] (read-out: IC50), the half-maximal inhibitory concentration (IC50) was > 1000 nM.

As for `CCCCN1Cc2c(nc3ccccc3c2-c2ccccc2F)C1=O`, on Translocator protein [3], the half-maximal inhibitory concentration (IC50) is > 10000 nM.

Values taken from ChEMBL document CHEMBL5226324, “Exploring Translocator Protein (TSPO) Medicinal Chemistry: An Approach for Targeting Radionuclides and Boron Atoms to Mitochondria” (J Med Chem, 2021).
